Test results published in paper PMC5478869, “New Hydroxycinnamic Acid Esters as Novel 5-Lipoxygenase Inhibitors That Affect Leukotriene Biosynthesis” (Mediators of Inflammation, 2017).

molecular target: T1, 5-LO (Homo sapiens, UniProt P09917); assay: Biosynthesis of 5-LO products by thapsigargin-stimulated PMNL; format: cell-based; parameters: endogenous in cells; host or cells: human polymorphonuclear leukocytes (PMNL) isolated from whole blood; conditions: freshly isolated human PMNL, 5 min preincubation, 1 μM thapsigargin 15 min; 95% CI in brackets; read-out: IC50 (95% CI) for the inhibition of 5-LO product biosynthesis in human PMNL
T1 sequence (P09917 1-674): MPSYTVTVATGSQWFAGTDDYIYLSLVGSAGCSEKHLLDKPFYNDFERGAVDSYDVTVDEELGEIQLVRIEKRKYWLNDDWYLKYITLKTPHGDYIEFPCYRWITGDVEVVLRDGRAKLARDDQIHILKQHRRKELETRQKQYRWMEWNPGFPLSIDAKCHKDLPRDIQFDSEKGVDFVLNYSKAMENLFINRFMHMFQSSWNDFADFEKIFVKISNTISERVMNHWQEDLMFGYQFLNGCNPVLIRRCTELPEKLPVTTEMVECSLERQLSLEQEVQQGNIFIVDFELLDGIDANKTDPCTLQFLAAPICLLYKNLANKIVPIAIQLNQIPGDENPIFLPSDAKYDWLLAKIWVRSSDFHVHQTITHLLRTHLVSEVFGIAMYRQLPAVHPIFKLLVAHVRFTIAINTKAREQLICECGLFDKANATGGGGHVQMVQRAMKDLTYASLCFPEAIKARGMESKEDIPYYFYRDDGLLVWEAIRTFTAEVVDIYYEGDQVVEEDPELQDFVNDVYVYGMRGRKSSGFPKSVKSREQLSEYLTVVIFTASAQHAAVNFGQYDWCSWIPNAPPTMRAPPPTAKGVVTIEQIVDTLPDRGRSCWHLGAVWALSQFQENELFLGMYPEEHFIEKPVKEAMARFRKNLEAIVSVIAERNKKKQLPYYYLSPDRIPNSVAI
Procedure: Polymorphonuclear leukocytes (PMNL) were isolated as previously described. Briefly, whole blood was collected (with anticoagulant citrate dextrose (ACD)) and then centrifuged at 500 g for 10 min. Platelet-rich plasma (PRP) was set aside for platelet isolation (see below), and erythrocytes were removed by dextran sedimentation. After a centrifugation step at 900 g × 20 min at room temperature on a lymphocyte separation medium cushion (density, 1.077 g/ml) (Wisent), PMNL were obtained (>96%) followed by hypotonic lysis of the remaining erythrocytes. PMNL were counted and resuspended at 10^7 cells/ml in HBSS supplemented with 1.6 mM CaCl2. PRP was processed as previously described for platelet isolation. Briefly, PRP was centrifuged at 400 g for 2 min at room temperature to remove the remaining erythrocytes. The supernatant was then centrifuged at 1300g for 10 min to pellet platelets. Cells were resuspended in Tyrode Buffer pH 7.4 (134 mM NaCl, 2.9 mM KCl, 0.34 mM Na2HPO4, 12 mM NaHCO3, 20 mM HEPES, 1 mM MgCl2, 5 mM glucose, and 0.5 mg/ml BSA) at 3 × 10^8 cells/ml in the presence of 5 mM CaCl2.
Suspended PMNL (10^7 cells/ml) were incubated at 37°C with adenosine deaminase (0.3 U/ml, Sigma-Aldrich) and test compounds at indicated concentrations 5 min before stimulation. To initiate stimulation, 1 μM of thapsigargin (Sigma-Aldrich) was added to cells which were then incubated for 15 min at 37°C [31]. Two volumes of MeOH:MeCN (1 : 1) containing the internal standard PGB2 (100 ng/ml) was then added, and samples were processed for RP-HPLC analysis as described above.
Statistical analysis and graph design were performed with GraphPad Prism 5 software (GraphPad Software, San Diego, California). IC50 values were calculated from a sigmoidal concentration-response curve-fitting model and are expressed as means with 95% confidence intervals. All other data are expressed as mean ± SEM. One-way ANOVA with Dunnett's multiple comparison test (p < 0.05) were performed to determine significant difference from controls.
Figure 2 Effect of the test compounds on the biosynthesis of 5-LO products in transfected HEK293 cells (a) and thapsigargin-stimulated PMNL (b). (a) HEK293 cells expressing both 5-LO and FLAP were incubated in presence of the indicated compounds (1 μM) or their diluent (control, 0.5% DMSO) for 5 min, then biosynthesis of 5-LO products was initiated with the addition of 10 μM calcium ionophore A23187 and 10 μM arachidonic acid for 15 min. After stimulation, reactions were stopped and samples were processed for analysis of 5-LO products by RP-HPLC. Total 5-LO products measured represent the sum of LTB4, its trans isomers, and 5-hydroxyeicosatetraenoic acid. (b) Freshly isolated human PMNL were incubated in presence of test compounds (or their diluent control, DMSO 0.5%) at the indicated concentrations for 5 min. Biosynthesis of the 5-LO products was initiated with the addition of 1 μM of thapsigargin, followed by a 15 min incubation period at 37°C. The stimulation was then stopped and samples were processed for RP-HPLC analysis and total 5-LO products quantification. Total 5-LO products measured represent the sum of LTB4, its trans isomers, 20-COOH- and 20-OH-LTB4 and 5-hydroxyeicosatetraenoic acid. Data are expressed as means ± SEM of at least 3 independent experiments. ^∗Different from control, as determined by one-way ANOVA with Dunnett's multiple comparison test (p < 0.05).

IC50 | Compound
490 nM | O=C(/C=C/c1ccc(O)c(O)c1)OCCCc1ccccc1 [Compound 13]
1040 nM | Cc1ccc(CCOC(=O)/C=C/c2ccc(O)c(O)c2)cc1 [Compound 15]
790 nM | O=C(/C=C/c1ccc(O)c(O)c1)OCCc1ccccc1 [CAPE (2), Caffeic acid phenethyl ester, reference compound]
1010 nM | O=C(/C=C/c1ccc(O)c(O)c1)OCCc1ccc(F)cc1 [Compound 14]
870 nM | C=C(C)CCOC(=O)/C=C/c1ccc(O)c(O)c1 [Compound 9]
530 nM | O=C(/C=C/c1ccc(O)c(O)c1)OCC(c1ccccc1)c1ccccc1 [Compound 19]
1290 nM | COc1ccc(CCOC(=O)/C=C/c2ccc(O)c(O)c2)cc1 [Compound 16]
